Consider three molecules from patent publication US20230024991A1, “PRODRUGS OF ACYL CARNITINES” (ATAI Life Sciences AG, priority 2021, published 2023).

Data set [1] can be described thus: Determination of plasma half life, rat plasma. Format: in vitro ADME. The following applies: pH 7.4, 37° C. (Table 4), read-out: Mean t1/2. How it is done:
(§1) Human, rat, and dog plasma were dialyzed against PBS buffer, pH 7.4 using Thermo Slide-A-Lyzer™ G2 Dialysis Cassettes for 24 hours at 4° C. prior to the experiment.
(§2) The assay was carried out in 96-well microtiter plates. Prodrugs and the reference compound (propantheline) at a final concentration of 1 μM were incubated separately in singlet at 37° C. with mouse, rat, dog, monkey or human plasma for 0, 30, 60, 120, 240, and 1440 min. At the end of each incubation time point, 300 μL of the quenching solutions (50% acetonitrile, 50% methanol, 0.05% formic acid) containing the internal standards (bucetin and d3-carnitine) was added to each well. The incubation plates were sealed, vortexed, and centrifuged at 10° C. for 15 minutes at 4000 rpm. The supernatant was transferred to fresh plates for LC/MS/MS analysis of the test compounds.
(§3) All samples were analyzed by LC/MS/MS using an AB Sciex API 4000 instrument (AB Sciex LLC, Framingham, Mass.), coupled to a Shimadzu LC-20AD LC Pump system (Shimadzu North America, Columbia, Md.). […]
(§4) The extent of metabolism was calculated based on the disappearance of prodrugs, compared to their initial concentration. The initial rates of clearance of prodrugs were calculated using linear regression plot of semi-log % remaining of prodrugs versus time. […]

Data set [2] in a line: Determination of plasma half life, dog plasma. The class given is in vitro ADME. The following applies: pH 7.4, 37° C. (Table 4). How it is done: as §1, §2, §3, §4
Data set [3] in a line: Determination of plasma half life, human plasma. Format: in vitro ADME. The following applies: 37° C. (Table 1), read-out: Human Mean t1/2. Here is the method:
as §1, §2, §3, §4

For data set [4] the following is noted: cited from earlier work.
The conditions of data set [5]: normal baseline conditions; cited from earlier work.

`CCOC(=O)C[C@H](C[N+](C)(C)C)OC(=O)CC` [Compound 3, (R)-4-ethoxy-N,N,N-trimethyl-4-oxo-2-(propionyloxy)butan-1-aminium chloride]: the half-life at 1 μM came to 8.79 h in data set [1], 22.7 h in data set [2] and 9.16 h in data set [3].
In the case of `CCCCC(=O)O[C@H](CC(=O)OCC)C[N+](C)(C)C` [Compound 4, (R)-4-ethoxy-N,N,N-trimethyl-4-oxo-2-(pentanoyloxy)butan-1-aminium chloride], the half-life at 1 μM in data set [1] was determined as 4.33 h; in data set [2], 11.7 h; in data set [3] it was 0.927 h.
Regarding `C[N+](C)(C)C[C@H](O)CC(=O)[O-]` [L-carnitine], the “bioavailability of dietary L-carnitine” value in data set [4] (dietary, depends on the amount in the meal) was 54-87%. Besides, the bioavailability in data set [4] (oral administration of large amounts of exogenous carnitine (1-6 g)) is 5-18%. In data set [5], the “tubular reabsorption in the kidney” value was “about 99%”.
